Values after ≈ are worked out from the molar mass of the structure shown. Like-named read-outs stand apart in the source and are kept apart here.
Key:
Staph. Epi. 3 = assay: MIC, Staph. Epi. 3 strain; format: cell-based; conditions: Staphylococcus epidermidis; strain isolated from an acne patient; read-out: minimal inhibitory concentrations, Staph. Epi. 3
Excerpt: (§1) The activity of retinoic esters of antibiotics namely of erythromycin A, lincomycin and clindamycin has been studied by the dilution method, so as to determine, the minimal inhibitory concentration (MIC), this method being described and employed by G. A. Denys et al, "Antimicrobial Agents and Chemotherapy" 1983) 23, 335-337 and J. J. Leyden et al, J. Am. Acad. Dermatol. (1983), 8, (1) 41-5, by using as the strain of propionibacterium acnes, the P37 strain furnished by Cunliffe and Holland.
(§2) The "Staph. Epi. 3" strain is isolated from an acne patient whereas the "Staph. Epi. 6" strain is isolated from a non-acne patient. The isolation of these strains is carried out in accordance with the Williamson-Kligman method, ("A new method for the quantitative investigation of cutaneous bacteria", P. Williamson and A. Kligman, J. I. D., Vol. 45, No. 6, 1965). Decimal dilutions of the retained portions are effected and 0.1 ml of these dilutions is inoculated on a selective medium permitting isolation of staphylococcus.

P37 E⊖ (resistant) = assay: MIC by dilution method, P37 E⊖ (resistant) strain; format: cell-based, propionibacterium acnes; conditions: for MIC: Cutibacterium acnes; for activity on resistant strains relative to the esters of the invention: P37 E⊖
Excerpt: as §1
(§3) (1) at the interior of the zone of inhibition strains called P37 E⊖ are retained because of their apparent resistance to erythromycin;
(§4) After isolation and culture, the P37 E⊕ and P37 E⊖ strains effectively show very different sensitivities to erythromycin as is illustrated by the following respective MIC values:
(§5) The Minimal Inhibitory Concentration (MIC) expressed in μg/ml of the tested retinoic esters of erythromycin A, lincomycin and clindamycin vis-a-vis the P37⊕ and P37⊖ strains is reported in the following tables

Staph. Epi. 6 = assay: MIC, Staph. Epi. 6 strain; format: cell-based; conditions: Staphylococcus epidermidis; strain isolated from a non-acne patient; read-out: minimal inhibitory concentrations, Staph. Epi. 6
Excerpt: as §1, §2

P37 E⊕ (sensitive) = assay: MIC by dilution method, P37 E⊕ (sensitive) strain; format: cell-based, propionibacterium acnes; conditions: for MIC: Cutibacterium acnes; for activity on sensitive strains relative to the esters of the invention: P37 E⊕
Excerpt: as §1
(§6) (2) at 1 cm beyond the periphery of the zone of inhibition strains called P37 E⊕ are retained.
as §4, §5

P37 = assay: IC 50 (Inhibitory Concentration at 50%), P37; format: cell-based, propionibacterium acnes; conditions: Cutibacterium acnes, constant culture time, 50% of survivors
Excerpt: (§7) This phenomeon is confirmed by the study of the IC 50 (Inhibitory Concentration at 50%) which represents the concentration of erythromycin where, at a constant culture time, 50% of survivors among the population are found.

P37 E⊕ = assay: IC 50 (Inhibitory Concentration at 50%), P37 E⊕; format: cell-based, propionibacterium acnes; conditions: Cutibacterium acnes, constant culture time, 50% of survivors
Excerpt: as §6, §7

P37 E⊖ = assay: IC 50 (Inhibitory Concentration at 50%), P37 E⊖; format: cell-based, propionibacterium acnes; conditions: Cutibacterium acnes
Excerpt: as §3, §7

P37 strain = assay: zone of inhibition of growth around disk in Petri dish; format: cell-based, propionibacterium acnes; conditions: Cutibacterium acnes, 144 h; 50 μg erythromycin in DMSO on 9 mm disk; 6 days at 36° C., anaerobic; after 8 sub-cultures; read-out: zone of inhibition of the growth of the strain, total diameter
Description: On the other hand, after 8 successive sub-cultures in the same medium (RCM, Reinforced Clostridium Medium (oxoid) 19/20, DMSO […] by volume) so as to obtain a progressive stabilization of the strain to this medium, a progressive resistance to erythromycin is manifested in the following form.
After exposure of a standardized inoculum (DO=1.8 to […]) on gelose medium (RCM+ furazolidone) in a Petri dish, a 9 mm diameter disk is deposited at its center. On this disk, 50 μg of erythromycin (in solution in DMSO) are deposited.

[1] = read-out: Minimal Inhibitory Concentration (MIC), P37 E⊖ (resistant)
[2] = sensitive strain, retinoic ester table, read-out: Minimal Inhibitory Concentration (MIC), P37 E⊕ (sensitive)

Row | SMILES | MIC (Staph. Epi. 3) [µg/mL] | MIC (P37 E⊖ (resistant); [1]) [µg/mL] | MIC (Staph. Epi. 6) [µg/mL] | MIC (P37 E⊕ (sensitive); [2]) [µg/mL] | other results
1 | CCC[C@@H]1C[C@@H](C(=O)N[C@@H]([C@H]2O[C@H](SC)[C@H](O)[C@@H](O)[C@H]2O)[C@@H](C)O)N(C)C1 [Lincomycin] | 14 (≈ 34.4 µM) | 66 (≈ 162 µM) | 20 (≈ 49.2 µM) | 13 (≈ 32 µM) | –
2 | CCCCCCCC/C=C\CCCCCCCC(=O)O[C@H]1[C@@H](O)[C@@H]([C@H](NC(=O)[C@@H]2C[C@@H](CCC)CN2C)[C@@H](C)O)O[C@H](SC)[C@@H]1O [O-oleoyl-3-lincomycin] | – | 42 (≈ 62.6 µM) | – | 19 (≈ 28.3 µM) | –
3 | CC[C@H]1OC(=O)[C@H](C)[C@@H](O[C@H]2C[C@@](C)(OC)[C@@H](O)[C@H](C)O2)[C@H](C)[C@@H](O[C@@H]2O[C@H](C)C[C@H](N(C)C)[C@H]2OC(=O)/C=C(C)/C=C/C=C(C)/C=C/C2=C(C)CCCC2(C)C)[C@](C)(O)C[C@@H](C)C(=O)[C@H](C)[C@@H](O)[C@]1(C)O [O-retinoyl (all trans)-2'-erythromycin A] | 75 (≈ 73.8 µM) | 13 (≈ 12.8 µM) | 80 (≈ 78.7 µM) | 14 (≈ 13.8 µM) | –
4 | CCC[C@@H]1C[C@@H](C(=O)N[C@@H]([C@H]2O[C@H](SC)[C@H](O)[C@@H](OC(=O)\C=C(C)/C=C/C=C(C)/C=C/C3=C(C)CCCC3(C)C)[C@H]2O)[C@@H](C)O)N(C)C1 [O-retinoyl (13-cis)-3-lincomycin] | 100 (≈ 145 µM) | 25 (≈ 36.3 µM) | 100 (≈ 145 µM) | 17.5 (≈ 25.4 µM) | –
5 | CCC[C@@H]1C[C@@H](C(=O)N[C@@H]([C@H]2O[C@H](SC)[C@H](O)[C@@H](O)[C@H]2O)[C@H](C)Cl)N(C)C1 [Clindamycin] | 7 (≈ 16.5 µM) | 10 (≈ 23.5 µM) | 8 (≈ 18.8 µM) | 1 (≈ 2.35 µM) | –
6 | CCC[C@@H]1C[C@@H](C(=O)N[C@@H]([C@H]2O[C@H](SC)[C@H](O)[C@@H](OC(=O)\C=C(C)/C=C/C=C(C)/C=C/C3=C(C)CCCC3(C)C)[C@H]2O)[C@H](C)Cl)N(C)C1 [O-retinoyl (13-cis)-3-clindamycin] | 113 (≈ 160 µM) | 35 (≈ 49.5 µM) | 113 (≈ 160 µM) | 1.5 (≈ 2.12 µM) | –
7 | CCC[C@@H]1C[C@@H](C(=O)N[C@@H]([C@H]2O[C@H](SC)[C@H](O)[C@@H](OC(=O)/C=C(C)/C=C/C=C(C)/C=C/C3=C(C)CCCC3(C)C)[C@H]2O)[C@H](C)Cl)N(C)C1 [O-retinoyl (all-trans)-3-clindamycin, O-retinoyl (all trans)-3-clindamycin] | – | 50 (≈ 70.7 µM) | – | 18 (≈ 25.4 µM) | –
8 | CC[C@H]1OC(=O)[C@H](C)[C@@H](O[C@H]2C[C@@](C)(OC)[C@@H](O)[C@H](C)O2)[C@H](C)[C@@H](O[C@@H]2O[C@H](C)C[C@H](N(C)C)[C@H]2O)[C@](C)(O)C[C@@H](C)C(=O)[C@H](C)[C@@H](O)[C@]1(C)O [Erythromycin A] | 13 (≈ 17.7 µM) | > 50 | 30 (≈ 40.9 µM) | 1 (≈ 1.36 µM) | IC50 (P37): 50 µg/mL (≈ 68.1 µM); MIC (P37 E⊖ (resistant)): 50 µg/mL (≈ 68.1 µM); IC50 (P37 E⊕): 5 µg/mL (≈ 6.81 µM); IC50 (P37 E⊖): 100 µg/mL (≈ 136 µM); MIC (P37 E⊕ (sensitive); P37 E⊕ strain, strain characterisation table, read-out: MIC): 0.78 µg/mL (≈ 1.06 µM); zone of inhibition at 50 µg/disc (P37 strain): 42 mm
9 | CC[C@H]1OC(=O)[C@H](C)[C@@H](O[C@H]2C[C@@](C)(OC)[C@@H](O)[C@H](C)O2)[C@H](C)[C@@H](O[C@@H]2O[C@H](C)C[C@H](N(C)C)[C@H]2OC(=O)\C=C(C)/C=C/C=C(C)/C=C/C2=C(C)CCCC2(C)C)[C@](C)(O)C[C@@H](C)C(=O)[C@H](C)[C@@H](O)[C@]1(C)O [O-retinoyl (13-cis)-2'-erythromycin A] | 110 (≈ 108 µM) | 34 (≈ 33.5 µM) | 110 (≈ 108 µM) | 20 (≈ 19.7 µM) | –
10 | CCCCCCCC/C=C\CCCCCCCC(=O)O[C@H]1[C@H](O[C@@H]2[C@@H](C)[C@H](O[C@H]3C[C@@](C)(OC)[C@@H](O)[C@H](C)O3)[C@@H](C)C(=O)O[C@H](CC)[C@@](C)(O)[C@H](O)[C@@H](C)C(=O)[C@H](C)C[C@@]2(C)O)O[C@H](C)C[C@@H]1N(C)C [O-oleoyl-2'-erythromycin A (Z-9)] | – | 100 (≈ 100 µM) | – | 50 (≈ 50.1 µM) | activity on resistant strains relative to the esters of the invention (P37 E⊖ (resistant)): clearly less active; activity on sensitive strains relative to the esters of the invention (P37 E⊕ (sensitive)): clearly less active
11 | CCCCCCCC/C=C\CCCCCCCC(=O)O[C@H]1[C@@H](O)[C@@H]([C@H](NC(=O)[C@@H]2C[C@@H](CCC)CN2C)[C@H](C)Cl)O[C@H](SC)[C@@H]1O [O-oleoyl-3-clindomycin] | – | > 138 | – | 54 (≈ 78.3 µM) | activity on resistant strains relative to the esters of the invention (P37 E⊖ (resistant)): clearly less active; activity on sensitive strains relative to the esters of the invention (P37 E⊕ (sensitive)): clearly less active

From patent publication US5045533A, “Retinoic esters of antibiotics and pharmaceutical and cosmetic compositions containing them” (L'Oreal, priority 1986, dated 1991)
